Holding throughout (assay type): cell-based
One assay addresses T1, hGIPR (Homo sapiens, UniProt P48546).
T1 construct: expressed in transfected cells
T1 sequence (P48546 22-466): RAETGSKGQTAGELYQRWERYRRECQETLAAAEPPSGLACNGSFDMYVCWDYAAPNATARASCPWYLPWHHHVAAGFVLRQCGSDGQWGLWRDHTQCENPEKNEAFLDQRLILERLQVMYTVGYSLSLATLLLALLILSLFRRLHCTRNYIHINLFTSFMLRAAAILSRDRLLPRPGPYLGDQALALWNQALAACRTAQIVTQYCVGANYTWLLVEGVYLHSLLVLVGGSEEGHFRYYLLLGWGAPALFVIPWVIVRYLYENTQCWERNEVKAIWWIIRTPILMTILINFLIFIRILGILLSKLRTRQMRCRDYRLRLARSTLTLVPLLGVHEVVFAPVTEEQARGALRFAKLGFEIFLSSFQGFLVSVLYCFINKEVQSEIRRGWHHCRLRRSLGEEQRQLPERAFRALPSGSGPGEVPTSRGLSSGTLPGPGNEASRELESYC
Briefly: Functional cAMP formation (HTRF) in HEK-293 clonal cells expressing hGIPR, 0.1% bovine casein, without or with 1.0% human serum albumin. The settings on record: for EC50: cAMP, 0.1% bovine casein (no human serum albumin), geometric mean. The method, boiled down:
(§1)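 Readings of the HTRF 665/620 nm ratio, which falls as cAMP rises, were converted to nM cAMP using a standard curve after 30 min peptide exposure at 37° C.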

A further assay addresses hGLP-1R (Homo sapiens, UniProt P43220). Briefly: Functional cAMP formation (HTRF) in HEK-293 clonal cells expressing hGLP-1R, 0.1% bovine casein, without or with 1.0% human serum albumin. More on the design: expressed in transfected cells. Conditions: for EC50: cAMP. The method in brief: as §1
For orientation: Cyclic AMP is a second messenger, typically raised through Gs and lowered through Gi signalling.

The target of another assay is T2, hGCGR (Homo sapiens, UniProt P47871).
T2 construct: expressed in transfected cells
T2 sequence (P47871 26-477): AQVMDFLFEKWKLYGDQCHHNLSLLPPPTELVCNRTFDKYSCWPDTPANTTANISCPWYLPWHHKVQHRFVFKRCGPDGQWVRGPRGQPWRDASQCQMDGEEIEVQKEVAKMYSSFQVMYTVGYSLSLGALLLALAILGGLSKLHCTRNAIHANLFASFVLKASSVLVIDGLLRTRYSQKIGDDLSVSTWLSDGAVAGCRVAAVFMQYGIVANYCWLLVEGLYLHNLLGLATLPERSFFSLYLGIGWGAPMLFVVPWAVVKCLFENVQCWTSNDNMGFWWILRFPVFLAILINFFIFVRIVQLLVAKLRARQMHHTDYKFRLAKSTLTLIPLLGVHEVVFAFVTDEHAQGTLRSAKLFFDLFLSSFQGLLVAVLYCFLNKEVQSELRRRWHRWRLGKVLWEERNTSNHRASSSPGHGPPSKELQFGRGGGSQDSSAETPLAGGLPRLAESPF
Kind of assay: Functional cAMP formation (HTRF) in HEK-293 clonal cells expressing hGCGR, 0.1% bovine casein, without or with 1.0% human serum albumin. The method, boiled down:
as §1

[1] abbreviates: hGIPR EC50, nM (SEM, n), 37° C.
Where [2] appears, read: hGCGR EC50, nM (SEM, n), cAMP, 37° C., 0.1% bovine casein (no human serum albumin), geometric mean.

Like-named read-outs stand apart in the source and are kept apart here. *1 amine or outer side, *2 acyl side, *3 side chain or, on linkers, in order; H or OH if unused. Where a SMILES comes first, the peptide text is derived from it. Side-chain parts run from the residue outwards. [ ]: non-standard residue; d: D form. The star is where a group is joined. Decanoyl(10-(4-HOOC-PhO)) = O=C(O)c1ccc(OCCCCCCCCCC(=O)*)cc1; αMePhe(2-F) = C[C@](N)(Cc1ccccc1F)C(=O)O; γGlu = O=C(O)[C@H](CCC(=O)[*:2])N[*:1]; αMeY = C[C@](N)(Cc1ccc(O)cc1)C(=O)O; αMeL = CC(C)C[C@](C)(N)C(=O)O; Orn = NCCC[C@H](N)C(=O)O; AEEA = NCCOCCOCC(=O)O; Aib = CC(C)(N)C(=O)O

hGLP-1R, sequence (P43220 24-463): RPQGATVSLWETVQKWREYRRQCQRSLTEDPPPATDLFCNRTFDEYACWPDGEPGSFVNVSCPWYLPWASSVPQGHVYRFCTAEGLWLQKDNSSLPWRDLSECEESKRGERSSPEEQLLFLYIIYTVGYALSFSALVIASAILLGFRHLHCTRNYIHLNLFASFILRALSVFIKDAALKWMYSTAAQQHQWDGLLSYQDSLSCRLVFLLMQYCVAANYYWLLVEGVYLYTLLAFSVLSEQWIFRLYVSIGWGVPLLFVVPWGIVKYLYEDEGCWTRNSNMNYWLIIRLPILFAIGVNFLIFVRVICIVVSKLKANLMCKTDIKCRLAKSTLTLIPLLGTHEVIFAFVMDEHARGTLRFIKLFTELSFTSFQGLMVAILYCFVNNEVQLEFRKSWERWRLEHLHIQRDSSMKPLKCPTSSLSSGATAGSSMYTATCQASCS

On to `CC[C@H](C)[C@H](NC(=O)[C@H](CC(C)C)NC(=O)[C@](C)(Cc1ccc(O)cc1)NC(=O)[C@@H](CCC(=O)O)NC(=O)[C@@H](NC(=O)[C@H](Cc1ccccc1)NC(=O)[C@H](CCC(=O)O)NC(=O)C(C)(C)NC(=O)[C@H](CCC(N)=O)NC(=O)[C@H](C)NC(=O)[C@H](CCCCNC(=O)COCCOCCNC(=O)COCCOCCNC(=O)CC[C@H](NC(=O)CCCCCCCCCOc1ccc(C(=O)O)cc1)C(=O)O)NC(=O)[C@H](CCCN)NC(=O)[C@H](CC(=O)O)NC(=O)[C@H](CC(C)C)NC(=O)[C@](C)(CC(C)C)NC(=O)[C@@H](NC(=O)C(C)(C)NC(=O)[C@@H](NC(=O)[C@H](CC(=O)O)NC(=O)[C@H](CO)NC(=O)[C@@H](NC(=O)[C@](C)(Cc1ccccc1F)NC(=O)[C@@H](NC(=O)CNC(=O)[C@H](CCC(=O)O)NC(=O)C(C)(C)NC(=O)[C@@H](N)Cc1ccc(O)cc1)[C@@H](C)O)[C@@H](C)O)C(C)C)[C@@H](C)CC)[C@@H](C)CC)C(=O)N[C@@H](CCC(=O)O)C(=O)NCC(=O)NCC(=O)N1CCC[C@H]1C(=O)N[C@@H](CO)C(=O)N[C@@H](CO)C(=O)NCC(=O)N[C@@H](C)C(=O)N1CCC[C@H]1C(=O)N1CCC[C@H]1C(=O)N1CCC[C@H]1C(=O)N[C@@H](CO)C(=O)N[C@@H](CCCCNC(=O)COCCOCCNC(=O)COCCOCCNC(=O)CC[C@H](NC(=O)CCCCCCCCCOc1ccc(C(=O)O)cc1)C(=O)O)C(N)=O` [Example 380] (H-Y[Aib]EGT[αMePhe(2-F)]TSDV[Aib]I[αMeL]LD[Orn]K([AEEA-AEEA-γGlu-Decanoyl(10-(4-HOOC-PhO))])AQ[Aib]EFI[dE][αMeY]LIEGGPSSGAPPPSK([AEEA-AEEA-γGlu-Decanoyl(10-(4-HOOC-PhO))])-NH2), for which the Emax (as a rule, the maximal effect, on the per cent scale that the assay sets) on hGIPR (HEK293, read-out: hGIPR Emax, % ± SEM, cAMP, 37° C., 0.1% bovine casein and 1.0% human serum albumin, percent of maximal response to GIP(1-42)NH2) was 93.5%; on hGIPR (HEK293, read-out: hGIPR Emax, % ± SEM, cAMP, 37° C., 0.1% bovine casein, percent of maximal response to GIP(1-42)NH2, arithmetic mean) it was 100%; on hGLP-1R (HEK293, read-out: hGLP-1R Emax, % ± SEM, cAMP, 37° C., 0.1% bovine casein and 1.0% human serum albumin, percent of maximal response to GLP-1(7-36)NH2), 94.5%; on hGLP-1R (HEK293, read-out: hGLP-1R Emax, % ± SEM, cAMP, 37° C., 0.1% bovine casein, percent of maximal response to GLP-1(7-36)NH2, arithmetic mean) it was 96.2%. Besides, the EC50 (commonly the midpoint of the concentration-response curve) on hGIPR (setting [1]) was 0.0209 nM; at hGLP-1R (hGLP-1R EC50, nM (SEM, n), 37° C., 0.1% bovine casein (no human serum albumin), geometric mean), 0.176 nM; on hGLP-1R (hGLP-1R EC50, nM (SEM, n), 37° C., 0.1% bovine casein and 1.0% human serum albumin, geometric mean (SEM, n)), 28 nM; at hGCGR (setting [2]) it was above 9950 nM; at hGCGR (hGCGR EC50, nM (SEM, n), cAMP, 37° C., 0.1% bovine casein and 1.0% human serum albumin, geometric mean (SEM, n)), above 9950 nM.

Regarding `CC[C@H](C)[C@H](NC(=O)[C@H](CC(C)C)NC(=O)[C@](C)(Cc1ccc(O)cc1)NC(=O)[C@H](CCCCNC(=O)COCCOCCNC(=O)COCCOCCNC(=O)CC[C@H](NC(=O)CC[C@H](NC(=O)CCCCCCCCCCCCC(=O)O)C(=O)O)C(=O)O)NC(=O)[C@@H](NC(=O)[C@H](Cc1ccccc1)NC(=O)[C@H](CCCN)NC(=O)C(C)(C)NC(=O)[C@H](CCC(N)=O)NC(=O)[C@H](C)NC(=O)[C@H](CCC(N)=O)NC(=O)[C@H](CCCN)NC(=O)[C@H](CC(=O)O)NC(=O)[C@H](CC(C)C)NC(=O)[C@](C)(CC(C)C)NC(=O)[C@@H](NC(=O)C(C)(C)NC(=O)[C@H](Cc1ccc(O)cc1)NC(=O)[C@H](CC(=O)O)NC(=O)[C@H](CO)NC(=O)[C@@H](NC(=O)[C@](C)(Cc1ccccc1F)NC(=O)[C@@H](NC(=O)CNC(=O)[C@H](CCC(=O)O)NC(=O)C(C)(C)NC(=O)[C@@H](N)Cc1ccc(O)cc1)[C@@H](C)O)[C@@H](C)O)[C@@H](C)CC)[C@@H](C)CC)C(=O)N[C@@H](CCCCNC(=O)COCCOCCNC(=O)COCCOCCNC(=O)CC[C@H](NC(=O)CC[C@H](NC(=O)CCCCCCCCCCCCC(=O)O)C(=O)O)C(=O)O)C(=O)NCC(=O)NCC(=O)N1CCC[C@H]1C(=O)N[C@@H](CO)C(=O)N[C@@H](CO)C(=O)NCC(=O)N[C@@H](C)C(=O)N1CCC[C@H]1C(=O)N1CCC[C@H]1C(=O)N1CCC[C@H]1C(=O)N[C@@H](CO)C(N)=O` [Example 480], the EC50 on hGIPR (37° C., read-out: hGIPR EC50, nM (SEM, n)) was 0.00955 nM; on hGLP-1R (37° C., 0.1% bovine casein (no human serum albumin), geometric mean, read-out: hGLP-1R EC50, nM (SEM, n)), 0.124 nM; on hGLP-1R (37° C., 0.1% bovine casein and 1.0% human serum albumin, geometric mean (SEM, n), read-out: hGLP-1R EC50, nM (SEM, n)), 2.65 nM; at hGCGR (cAMP, 37° C., 0.1% bovine casein (no human serum albumin), geometric mean, read-out: hGCGR EC50, nM (SEM, n)), above 9950 nM; on hGCGR (cAMP, 37° C., 0.1% bovine casein and 1.0% human serum albumin, geometric mean (SEM, n), read-out: hGCGR EC50, nM (SEM, n)), above 9950 nM. For the same molecule, the Emax at hGLP-1R (HEK293, cAMP, 37° C., 0.1% bovine casein, percent of maximal response to GLP-1(7-36)NH2, arithmetic mean, read-out: hGLP-1R Emax, % ± SEM) came to 120%.

As to `CC[C@H](C)[C@H](NC(=O)[C@H](CC(C)C)NC(=O)[C@](C)(Cc1ccc(O)cc1)NC(=O)[C@@H](CCC(=O)O)NC(=O)[C@@H](NC(=O)[C@H](Cc1ccccc1)NC(=O)[C@H](CCC(=O)O)NC(=O)C(C)(C)NC(=O)[C@H](CCC(N)=O)NC(=O)[C@H](C)NC(=O)[C@H](CCCCNC(=O)COCCOCCNC(=O)COCCOCCNC(=O)CC[C@H](NC(=O)CCCCCCCCCOc1ccc(C(=O)O)cc1)C(=O)O)NC(=O)[C@H](CCCN)NC(=O)[C@H](CC(=O)O)NC(=O)[C@H](CC(C)C)NC(=O)[C@](C)(CC(C)C)NC(=O)[C@@H](NC(=O)[C@H](CO)NC(=O)[C@H](Cc1ccncc1)NC(=O)[C@H](CC(=O)O)NC(=O)[C@H](CO)NC(=O)[C@@H](NC(=O)[C@](C)(Cc1ccccc1F)NC(=O)[C@@H](NC(=O)CNC(=O)[C@H](CCC(=O)O)NC(=O)C(C)(C)NC(=O)[C@@H](N)Cc1ccc(O)cc1)[C@@H](C)O)[C@@H](C)O)[C@@H](C)CC)[C@@H](C)CC)C(=O)N[C@@H](CCC(=O)O)C(=O)NCC(=O)NCC(=O)N1CCC[C@H]1C(=O)N[C@@H](CO)C(=O)N[C@@H](CO)C(=O)NCC(=O)N[C@@H](C)C(=O)N1CCC[C@H]1C(=O)N1CCC[C@H]1C(=O)N1CCC[C@H]1C(=O)N[C@@H](CO)C(=O)N[C@@H](CCCCNC(=O)COCCOCCNC(=O)COCCOCCNC(=O)CC[C@H](NC(=O)CCCCCCCCCOc1ccc(C(=O)O)cc1)C(=O)O)C(N)=O` [Example 273], the maximal response (Emax) at hGIPR (HEK293, read-out: hGIPR Emax, % ± SEM, 0.1% bovine casein and 1.0% human serum albumin, 37° C., percent of maximal response to GIP(1-42)NH2) was 88.4%; on hGLP-1R (HEK293, read-out: hGLP-1R Emax, % ± SEM, 0.1% bovine casein and 1.0% human serum albumin, 37° C., percent of maximal response to GLP-1(7-36)NH2), 90.5%. Further, the EC50 on hGIPR (setting [1]) was 0.0166 nM; at hGCGR (hGCGR EC50, nM (SEM, n), 0.1% bovine casein and 1.0% human serum albumin, 37° C., geometric mean) it was above 9950 nM; at hGCGR (setting [2]), above 9950 nM.

On to `CCCCCCCCCCCC(=O)N[C@@H](CCC(=O)NCCOCCOCC(=O)NCCOCCOCC(=O)NCCCC[C@H](NC(=O)CNC(=O)CNC(=O)[C@H](CCC(=O)O)NC(=O)[C@@H](NC(=O)[C@H](CC(C)C)NC(=O)[C@](C)(Cc1ccccc1)NC(=O)[C@@H](CCC(=O)O)NC(=O)[C@@H](NC(=O)[C@](C)(Cc1ccccc1)NC(=O)[C@H](CCC(=O)O)NC(=O)C(C)(C)NC(=O)[C@H](CCC(N)=O)NC(=O)[C@H](C)NC(=O)[C@H](CCCCNC(=O)COCCOCCNC(=O)COCCOCCNC(=O)CC[C@H](NC(=O)CCCCCCCCCCC)C(=O)O)NC(=O)[C@H](CCCN)NC(=O)[C@H](CC(=O)O)NC(=O)[C@H](CC(C)C)NC(=O)[C@](C)(CC(C)C)NC(=O)[C@@H](NC(=O)[C@H](CO)NC(=O)[C@H](Cc1ccncc1)NC(=O)[C@H](CC(=O)O)NC(=O)[C@H](CO)NC(=O)[C@@H](NC(=O)[C@](C)(Cc1ccccc1)NC(=O)[C@@H](NC(=O)CNC(=O)[C@H](CCC(=O)O)NC(=O)C(C)(C)NC(=O)[C@@H](N)Cc1ccc(O)cc1)[C@@H](C)O)[C@@H](C)O)[C@@H](C)CC)[C@@H](C)CC)[C@@H](C)CC)C(=O)N[C@@H](CO)C(=O)N[C@@H](CO)C(=O)NCC(=O)N[C@@H](C)C(=O)N1CCC[C@H]1C(=O)N1CCC[C@H]1C(=O)N1CCC[C@H]1C(=O)N[C@@H](CO)C(N)=O)C(=O)O` [Example 174], for which the Emax on hGIPR (HEK293, percent of maximal response to GIP(1-42)NH2, 37° C., 0.1% bovine casein, arithmetic mean, read-out: hGIPR Emax, % ± SEM) is 92.2%; on hGLP-1R (HEK293, percent of maximal response to GLP-1(7-36)NH2, 37° C., 0.1% bovine casein, arithmetic mean, read-out: hGLP-1R Emax, % ± SEM), 98.2%. The 50% effective concentration (EC50) at hGCGR (cAMP, incubated at 37° C., 0.1% bovine casein (no human serum albumin), geometric mean, read-out: hGCGR EC50, nM (SEM, n)) was above 9950 nM.

These data come from patent US20230265151A1, “GIP/GLP1 CO-AGONIST COMPOUNDS” (priority 2020, published 2023).
